Where two headings read alike, the source gives them in different places.
Legend:
Type in all cases: in vivo
[1] = test system: ducksalad (Heteranthera limosa); test: Test C flooded paddy test plant response; conditions: Heteranthera limosa; Flood, 250 g ai/ha; scale of 0 to 100 where 0 is no effect and 100 is complete control; 13 to 15 days; read-out: Ducksalad plant response rating
How it was run: (§1)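 Greenhouse paddy assay, 13–15 days. Treatment into 3 cm floodwater over 2-leaf plants; visual 0–100 rating against controls.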

rice (Oryza sativa) = test: Test C flooded paddy test plant response; conditions: Oryza sativa; Flood, 250 g ai/ha; scale of 0 to 100 where 0 is no effect and 100 is complete control; 13 to 15 days; read-out: Rice plant response rating
How it was run: as §1

[2] = test system: small-flower umbrella sedge (Cyperus difformis); test: Test C flooded paddy test plant response; conditions: Cyperus difformis; Flood, 250 g ai/ha; scale of 0 to 100 where 0 is no effect and 100 is complete control; 13 to 15 days; read-out: Sedge, Umbrella plant response rating
How it was run: as §1

[3] = test system: barnyardgrass (Echinochloa crus-galli); test: Test C flooded paddy test plant response; conditions: Echinochloa crus-galli; Flood, 250 g ai/ha; scale of 0 to 100 where 0 is no effect and 100 is complete control; 13 to 15 days; read-out: Barnyardgrass plant response rating
How it was run: as §1

corn (Zea mays) = test: Test B pre-/postemergence plant response; conditions: Zea mays, post-emergence, 240 h
How it was run: (§2)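 Ratings reflect visual injury versus untreated controls, from 0 for no effect to 100 for complete control, assessed roughly 10 days after treatment. Formulation: non-phytotoxic solvent mix with surfactant; pre- and postemergence sprays on plants grown in loam soil and sand.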

[4] = test system: giant foxtail (Setaria faberii); test: Test B pre-/postemergence plant response; conditions: for pest or weed control at 500 g/ha: 500 g ai/ha
How it was run: as §2

[5] = test system: pigweed (Amaranthus retroflexus); test: Test B pre-/postemergence plant response; conditions: for pest or weed control at 500 g/ha: 500 g ai/ha
How it was run: as §2

[6] = test system: wheat (Triticum aestivum); test: Test B pre-/postemergence plant response; conditions: Triticum aestivum, post-emergence, 240 h, read-out: Plant response rating, Wheat
How it was run: as §2

[7] = test system: barnyardgrass (Echinochloa crus-galli); test: Test B pre-/postemergence plant response; conditions: for pest or weed control at 500 g/ha: 500 g ai/ha
How it was run: as §2

[8] = test system: velvetleaf (Abutilon theophrasti); test: Test D pre-/postemergence plant response; conditions: Abutilon theophrasti; for pest or weed control at 31 g/ha: 31 g ai/ha; for pest or weed control at 62 g/ha: 62 g ai/ha; for pest or weed control at 125 g/ha: 125 g ai/ha
How it was run: (§3)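 Preemergence: seeds in loam/sand blend treated with test chemicals in non-phytotoxic solvent with surfactant; postemergence: plants at 2–18 cm (1- to 4-leaf stage) in peat-based medium sprayed likewise. Greenhouse 13 to 15 days, then visual rating vs controls, 0 (no effect) to 100 (complete control).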

[9] = test system: johnsongrass (Sorghum halepense); test: Test D pre-/postemergence plant response; conditions: Sorghum halepense; for pest or weed control at 31 g/ha: 31 g ai/ha; for pest or weed control at 62 g/ha: 62 g ai/ha; for pest or weed control at 125 g/ha: 125 g ai/ha
How it was run: as §3

[10] = 125 g ai/ha, postemergence, 0 to 100 scale, 0 no effect, 100 complete control
[11] = Postemergence, 500 g ai/ha, 0 to 100 scale (0 no effect, 100 complete control)
[12] = Preemergence, 125 g ai/ha, 0 to 100 scale (0 no effect, 100 complete control)
[13] = post-emergence, Postemergence, scale 0 to 100, 0 no effect, 100 complete control, read-out: Plant response rating, Velvetleaf
[14] = pre-emergence, Preemergence, scale 0 to 100 (0 no effect, 100 complete control), read-out: Plant response rating, Velvetleaf
[15] = post-emergence, Postemergence, scale 0 to 100, 0 no effect, 100 complete control, read-out: Plant response rating, Johnsongrass
[16] = pre-emergence, Preemergence, scale 0 to 100 (0 no effect, 100 complete control), read-out: Plant response rating, Johnsongrass

Fc1cccc(Oc2ncc(Cl)cn2)c1-c1cc(C(F)(F)F)on1 [Compound 168, 5-chloro-2-[2-[5-(trifluoromethyl)-3-isoxazolyl]-3-fluorophenoxy]pyrimidine]
pest or weed control at 250 g/ha [1]: 90% | plant injury at 250 g/ha (rice (Oryza sativa)): 40% | pest or weed control at 250 g/ha [2]: 90% | pest or weed control at 250 g/ha [3]: 90% | Corn plant response rating (crop injury, 0 = no effect, 100 = complete kill) at 125 g/ha (corn (Zea mays); [10]): 100% | Corn plant response rating (crop injury, 0 = no effect, 100 = complete kill) at 500 g/ha (corn (Zea mays); [11]): 100% | Foxtail, Giant plant response rating [4, 12]: 100 | pest or weed control at 125 g/ha ([4]; Setaria faberi, post-emergence, 240 h, 125 g ai/ha, postemergence, 0 to 100 scale, 0 no effect, 100 complete control, read-out: Plant response rating, Foxtail, Giant): 100% | pest or weed control at 500 g/ha ([4]; Setaria faberi, post-emergence, 240 h, Postemergence, 0 to 100 scale (0 no effect, 100 complete control), read-out: Plant response rating, Foxtail, Giant): 100% | pest or weed control at 500 g/ha ([4]; Setaria faberi, pre-emergence, 240 h, Preemergence, 0 to 100 scale where 0 is no effect and 100 is complete control, read-out: Plant response rating, Foxtail, Giant): 100% | pest or weed control at 125 g/ha ([5]; Amaranthus retroflexus, post-emergence, 240 h, 125 g ai/ha, postemergence, 0 to 100 scale, 0 no effect, 100 complete control, read-out: Plant response rating, Pigweed): 100% | pest or weed control at 500 g/ha ([5]; Amaranthus retroflexus, post-emergence, 240 h, Postemergence, 0 to 100 scale (0 no effect, 100 complete control), read-out: Plant response rating, Pigweed): 100% | pest or weed control at 500 g/ha ([5]; Amaranthus retroflexus, pre-emergence, 240 h, Preemergence, 0 to 100 scale where 0 is no effect and 100 is complete control, read-out: Plant response rating, Pigweed): 100% | Pigweed plant response rating [5, 12]: 100 | plant injury at 125 g/ha [6, 10]: 100% | plant injury at 500 g/ha [6, 11]: 100% | pest or weed control at 125 g/ha ([7]; Echinochloa crus-galli, post-emergence, 240 h, 125 g ai/ha, postemergence, 0 to 100 scale, 0 no effect, 100 complete control, read-out: Plant response rating, Barnyardgrass): 100% | pest or weed control at 500 g/ha ([7]; Echinochloa crus-galli, post-emergence, 240 h, Postemergence, 0 to 100 scale (0 no effect, 100 complete control), read-out: Plant response rating, Barnyardgrass): 100% | pest or weed control at 500 g/ha ([7]; Echinochloa crus-galli, pre-emergence, 240 h, Preemergence, 0 to 100 scale where 0 is no effect and 100 is complete control, read-out: Plant response rating, Barnyardgrass): 100% | Barnyardgrass plant response rating [7, 12]: 100 | pest or weed control at 31 g/ha ([8]; post-emergence, Postemergence, scale 0 to 100 (0 no effect, 100 complete control), read-out: Velvetleaf plant response rating): 40% | pest or weed control at 62 g/ha [8, 13]: 45% | pest or weed control at 125 g/ha [8, 13]: 90% | pest or weed control at 125 g/ha ([8]; pre-emergence, Preemergence, read-out: Plant response rating (scale 0 to 100), Velvetleaf): 100% | pest or weed control at 16 g/ha ([8]; pre-emergence, Preemergence, 16 g ai/ha, scale 0 to 100 (0 no effect, 100 complete control), read-out: Plant response rating, Velvetleaf): 85% | pest or weed control at 31 g/ha [8, 14]: 100% | pest or weed control at 62 g/ha [8, 14]: 100% | pest or weed control at 31 g/ha ([9]; post-emergence, Postemergence, scale 0 to 100 (0 no effect, 100 complete control), read-out: Johnsongrass plant response rating): 5% | pest or weed control at 62 g/ha [9, 15]: 5% | pest or weed control at 125 g/ha [9, 15]: 20% | pest or weed control at 125 g/ha ([9]; pre-emergence, Preemergence, read-out: Plant response rating (scale 0 to 100), Johnsongrass): 100% | pest or weed control at 16 g/ha ([9]; pre-emergence, Preemergence, 16 g ai/ha, scale 0 to 100 (0 no effect, 100 complete control), read-out: Plant response rating, Johnsongrass): 35% | pest or weed control at 31 g/ha [9, 16]: 95% | pest or weed control at 62 g/ha [9, 16]: 85%

Reference: patent US10131652B2, “Pyrimidinyloxy benzene derivatives as herbicides” (E. I. DU PONT DE NEMOURS AND COMPANY, priority 2014, dated 2018)
